Measurements from article PMC9851200, “Multiparameter phenotypic screening for endogenous TFEB and TFE3 translocation identifies novel chemical series modulating lysosome function” (Autophagy, 2022).
Like-named read-outs stand apart in the source and are kept apart here.

Key:
Conditions in all cases: PKIS2 primary screening
endogenous TFEB = test: TFEB nuclear translocation, immunocytochemistry high-content imaging; format: cell-based
endogenous TFE3 = test: TFE3 nuclear translocation, immunocytochemistry high-content imaging; format: cell-based
SH-SY5Y cells [1] = tested on: SH-SY5Y cells; also: reference of the scale not given here
SH-SY5Y cells [2] = test: AK (adenylate kinase) release ToxiLight cytotoxicity assay; also: reference of the scale not given here
SH-SY5Y cells [3] = test: Nuclear count from microscopy images (cellular growth and toxicity); also: reference of the scale not given here

Compound | TFEB % (endogenous TFEB) [%] | TFE3 % (endogenous TFE3) [%] | DQ Intensity (SH-SY5Y cells [1]) | DQ Spot (SH-SY5Y cells [1]) | AK (SH-SY5Y cells [2]) | Nuclear Count (SH-SY5Y cells [3]) | DQ Intensity (SH-SY5Y cells [1]; DQ Red BSA intensity) | DQ Spot (SH-SY5Y cells [1]; DQ Red BSA spot count)
Cc1cccc2c(-c3ccncn3)c(-c3ccc(F)cc3)nn12 [UNC10225097A] | 5.54 | 7.36 | 92.70 | 100.21 | 80.54 | 79.09 |  | 
C[C@@H](Oc1cc(-n2cnc3cc(-c4ccnc(NCCS(C)(=O)=O)c4)ccc32)sc1C(N)=O)c1ccccc1Cl [UNC10225234A] | 11.46 | 12.54 | 121.28 | 93.41 | 97.61 | 68.66 |  | 
Nc1nccc2scc(-c3ccc4c(c3)CCN4C(=O)Cc3cc(F)ccc3F)c12 [UNC10225494A] | 3.18 | 17.46 |  |  | 74.58 | 97.20 | 123.47 | 108.12
Cn1cc(-c2ccc3c(c2)CCN3C(=O)Cc2cc(F)cc(F)c2F)c2c(N)ncnc21 [UNC10225071A] | 5.81 | 19.64 | 128.82 | 133.47 | 97.57 | 91.42 |  | 
Cc1c(Cn2c(C)c(C)n3c(=O)cc(N4CCOCC4)nc23)cccc1C(F)(F)F [UNC10225225A] | 3.43 | 8.46 | 84.00 | 96.71 | 106.72 | 111.32 |  | 
C[C@H]1CC[C@@H](C(=O)Nc2ccccc2)CN1c1cc(-c2ccc3c(N)n[nH]c3c2)nc(N)n1 [GSK2283293] | 5.47 | 11.00 |  |  | 101.77 | 95.91 | 68.06 | 92.27
Nc1ncnc2[nH]c(-c3ccccc3)nc12 [UNC10243863A] | 9.65 | 10.89 | 154.91 | 119.26 | 85.62 | 66.20 |  | 
Cn1cncc1-c1cc2c(Nc3ccc(OCc4ccccc4)cc3)ncnc2cn1 [UNC10225035A] | 6.44 | 18.86 |  |  | 76.24 | 109.40 | 110.55 | 106.44
COc1cc2ncn(-c3cc(OCCCc4ccccc4)c(C(N)=O)s3)c2cc1OC [UNC10225450A] | 3.13 | 11.96 | 116.92 | 123.73 | 94.56 | 118.22 |  | 
NS(=O)(=O)CCc1cccc(Nc2nccc(-c3c(-c4cccc(NC(=O)c5c(F)cccc5F)c4)nn4ccccc34)n2)c1 [UNC10224988A] | 3.80 | 7.44 | 109.41 | 101.39 | 106.43 | 124.64 |  | 
CCn1c(-c2ccccc2)nc2cnccc21 [UNC10225407A] | 8.26 | 8.88 | 107.17 | 104.42 | 88.86 | 99.61 |  | 
COc1cccc(-c2nc(-c3ccccc3)[nH]c2-c2ccncc2)c1 [UNC10225025A] | 4.20 | 10.01 |  |  | 113.94 | 132.30 | 97.17 | 101.78
Cc1ccc(NC(=O)c2ccnc(N3CCN(C)CC3)c2)cc1-c1ccc(C(=O)NCC2CC2)cc1 [UNC10225009A] | 4.01 | 12.99 | 132.78 | 99.28 | 154.31 | 101.80 |  | 
COc1ccc(Nc2nccc(-c3ccc(NC(=O)c4cc5cc(F)ccc5[nH]4)cc3)n2)cc1 [GSK1229496] | 5.47 | 10.21 |  |  | 76.92 | 129.71 | 79.73 | 89.01
Fc1ccc(-c2nc3n(c2-c2ccncc2)CCS3)cc1 [UNC10225163A] | 3.29 | 5.95 |  |  | 64.81 | 90.62 | 100.39 | 119.65
O=C(Nc1ccc2c(c1)OCO2)NC1CCN(c2ccnc(Nc3ccc(F)cc3)n2)C1 (stereo not drawn) [GSK1379724] | 3.86 | 7.39 |  |  | 104.22 | 89.10 | 90.09 | 99.32
NC(=O)c1cccc(Nc2nccc(Nc3ccc(Oc4cccc(Cl)c4)c(Cl)c3)n2)c1 [GW659008] | 11.92 | 11.36 |  |  | 92.69 | 86.88 | 100.37 | 103.30
Cc1ccc(NC(=O)Nc2ccccc2F)cc1-c1ccc(C(=O)Nc2ccncc2)cc1 [UNC10225398A] | 7.18 | 17.53 | 90.99 | 98.29 | 135.60 | 104.03 |  | 

Compound | TFEB % (endogenous TFEB) [%] | TFE3 % (endogenous TFE3) [%] | DQ Intensity (SH-SY5Y cells [1]) | DQ Spot (SH-SY5Y cells [1]) | AK (SH-SY5Y cells [2]) | Nuclear Count (SH-SY5Y cells [3]) | DQ Intensity (SH-SY5Y cells [1]; DQ Red BSA intensity) | DQ Spot (SH-SY5Y cells [1]; DQ Red BSA spot count)
Cl.Cl.c1ccc(-c2cc3ccncc3cc2OC2CCNCC2)cc1 [UNC10225463A] | 5.07 | 49.72 | 117.87 | 77.04 | 97.09 | 112.69 |  | 
O=c1cc(N2CCOCC2)nc2n(Cc3cccc(Cl)c3Cl)c3ccccc3n12 [UNC10225136A] | 3.50 | 23.04 | 100.81 | 121.13 | 86.64 | 90.29 |  | 
CNc1nccc(-c2ccc3c(N)n[nH]c3c2)n1 [GSK2206003] | 3.51 | 14.62 |  |  | 89.67 | 71.44 | 68.32 | 96.17
FC(F)(F)c1ccc(/C=C/c2cncnc2Nc2ccc3[nH]c(Cc4ccccc4)nc3c2)cc1 [UNC10225096A] | 6.39 | 12.52 |  |  | 102.23 | 103.45 | 116.48 | 101.82
CNc1nccc(-c2c(-c3ccc(F)cc3)ncn2CCCN2CCOCC2)n1 [UNC10225031A] | 8.16 | 11.89 | 87.71 | 104.14 | 73.64 | 102.35 |  | 
Cc1ccc(NC(=O)c2ccnc(N3CCCCC3)c2)cc1-c1ccc(C(=O)NCC2CC2)cc1 [UNC10225036A] | 5.85 | 6.82 | 84.91 | 99.52 | 94.08 | 108.51 |  | 
Nc1nc(-c2ccc3c(N)n[nH]c3c2)cc(N2CCCC(NC(=O)c3ccccc3)C2)n1 (stereo not drawn) [GSK2286775] | 4.25 | 13.75 |  |  | 119.49 | 104.24 | 67.10 | 83.48
O=C(Nc1n[nH]c2cc(-c3ccco3)ccc12)C1CC1 [SB-737447] | 10.40 | 9.47 |  |  | 119.40 | 114.46 | 79.02 | 97.06
NCC(NC(=O)c1cc(-c2cn[nH]c2)c(-c2ccnc3[nH]ccc23)s1)c1ccccc1.O=C(O)C(F)(F)F.O=C(O)C(F)(F)F (stereo not drawn) [UNC10225196A] | 5.85 | 18.18 |  |  | 105.21 | 81.98 | 69.88 | 101.21
CC(=O)c1cccc(NC(=O)NC2CCN(c3ccnc(Nc4ccc(F)cc4)n3)C2)c1 (stereo not drawn) [GSK1379710] | 4.15 | 16.11 |  |  | 70.15 | 98.98 | 124.22 | 115.02
CC(C)(C)c1ccc(-n2cnc3c(N)ncnc32)cc1 [UNC10225367A] | 8.78 | 12.53 | 128.98 | 104.53 | 79.86 | 71.05 |  | 
O=C(O)C(F)(F)F.O=c1[nH]ccc2nc(N[C@@H]3CCNC3)nc(Nc3ccc4c(c3)S(=O)(=O)CC4)c12 [UNC10225451A] | 7.05 | 16.36 | 83.68 | 100.25 | 185.61 | 98.38 |  | 
CCCc1ccc(S(=O)(=O)NC2CCN(c3ccnc(Nc4ccc(OC)cc4)n3)C2)cc1 (stereo not drawn) [GSK1379737] | 5.95 | 12.75 |  |  | 106.07 | 116.08 | 83.70 | 93.35
Cc1ccc(S(=O)(=O)Nc2ccc(Nc3nccc(Nc4cccc5[nH]ncc45)n3)cc2)cc1 [GSK581271] | 3.93 | 6.80 |  |  | 89.43 | 129.24 | 132.42 | 120.36
CCS(=O)(=O)c1ccc(OC)c(Nc2ncc(-c3ccc(F)cc3)o2)c1 [GW591947] | 4.85 | 8.80 |  |  | 64.95 | 114.66 | 82.17 | 99.73
Fc1ccc(-c2nn3c(OCC(F)(F)F)cccc3c2-c2ccncc2)cc1 [UNC10225249A] | 6.54 | 7.21 |  |  | 70.84 | 84.48 | 115.73 | 116.42
N#Cc1ccc(-c2cc(-c3c[nH]nc3-c3ccccn3)ccn2)cc1 [UNC10225072A] | 2.62 | 14.52 |  |  | 65.14 | 116.96 | 58.59 | 75.50
